Columns and labels:
[1] = Cytotoxicity against human HFL1 cells assessed as inhibition of cell growth incubated for 72 hrs by MTT assay; assay type: toxicity, cell-based
[2] = tested on: HT-29; assay: Induction of mitochondrial membrane potential loss in human HT-29 cells assessed as healthy cells at 2 uM incubated for 48 hrs by JC-1 staining based flow cytometry analysis (reference value: 93.4 %); assay type: functional
[3] = tested on: HT-29; assay: Induction of cell cycle arrest in human HT-29 cells assessed as accumulation of cells at S phase at 4 uM incubated for 48 hrs by RNaeA/propidium iodide based flow cytometry analysis (reference value: 23.06 %); assay type: functional
[4] = tested on: HT-29; assay: Antitumor activity against human HT-29 cells overexpressing NQO-1 xenografted in ICR mouse assessed as reduction in tumor weight at 30 mg/kg, ip administered every day for 21 days and measured every 2 days relative to control; assay type: functional; parameters: scale not given: the % may be the effect or the level left; conditions: time 21 day
[5] = tested on: NCI-H596; assay: Antiproliferative activity against NQO1-deficient human NCI-H596 cells assessed as inhibition of cell growth incubated for 72 hrs by MTT assay; assay type: functional, cell-based; conditions: NCI-H596, 72 h
[6] = tested on: HT-29; assay: Induction of cell cycle arrest in human HT-29 cells assessed as accumulation of cells at G1 phase at 1 uM incubated for 48 hrs by RNaeA/propidium iodide based flow cytometry analysis (reference value: 62.98 %); assay type: functional
[7] = tested on: HT-29; assay: Induction of cell cycle arrest in human HT-29 cells assessed as accumulation of cells at G2 phase at 1 uM incubated for 48 hrs by RNaeA/propidium iodide based flow cytometry analysis (reference value: 13.96 %); assay type: functional
[8] = tested on: HT-29; assay: Induction of cell cycle arrest in human HT-29 cells assessed as accumulation of cells at G2 phase at 2 uM incubated for 48 hrs by RNaeA/propidium iodide based flow cytometry analysis (reference value: 13.96 %); assay type: functional
[9] = target: NAD(P)H dehydrogenase [quinone] 1 (Homo sapiens) (UniProt P15559); assay: Substrate activity at lyophilized human NQO1 assessed as compound decomposition measured after 6 hrs by HPLC analysis
NAD(P)H dehydrogenase [quinone] 1 (Homo sapiens), sequence (P15559 whole entry): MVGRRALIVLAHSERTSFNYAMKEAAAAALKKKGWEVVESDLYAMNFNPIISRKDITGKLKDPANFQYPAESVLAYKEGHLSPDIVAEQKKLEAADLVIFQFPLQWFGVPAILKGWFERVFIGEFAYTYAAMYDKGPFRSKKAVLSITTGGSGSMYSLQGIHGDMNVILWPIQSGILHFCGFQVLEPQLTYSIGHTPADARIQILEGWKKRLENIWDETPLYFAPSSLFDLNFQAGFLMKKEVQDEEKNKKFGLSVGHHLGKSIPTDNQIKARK

[10] = Selectivity index, ratio of IC50 for cytotoxicity against human HFL1 cells to IC50 for antiproliferative activity against human HT-29 cells overexpressing NQO1; assay type: toxicity, cell-based; conditions: HFL1 cells versus HT-29 cells overexpressing NQO1, read-out: Ratio IC50
[11] = tested on: HT-29; assay: Induction of mitochondrial membrane potential loss in human HT-29 cells assessed as JC-1 monomer formation by measuring increase in green intensity at 4 uM incubated for 48 hrs by JC-1 staining based flow cytometry analysis (reference value: 6.54 %); assay type: functional
[12] = tested on: HT-29; assay: Induction of apoptosis in human HT-29 cells assessed as viable cells at 2 uM incubated for 48 hrs by Annexin V-FITC/PI staining based flow cytometry analysis (Rvb= 96.54%); assay type: functional; conditions: read-out: Activity
[13] = Selectivity index, ratio of IC50 for antiproliferative activity against human HT-29 cells overexpressing NQO1 in presence of dicoumarol to antiproliferative activity against human HT-29 cells overexpressing NQO1; assay type: functional
[14] = tested on: HT-29; assay: Induction of apoptosis in human HT-29 cells assessed as viable cells at 1 uM incubated for 48 hrs by Annexin V-FITC/PI staining based flow cytometry analysis (Rvb= 96.54%); assay type: functional; conditions: read-out: Activity
[15] = tested on: HT-29; assay: Induction of cell cycle arrest in human HT-29 cells assessed as accumulation of cells at G1 phase at 4 uM incubated for 48 hrs by RNaeA/propidium iodide based flow cytometry analysis (reference value: 62.98 %); assay type: functional
[16] = tested on: HT-29; assay: Induction of apoptosis in human HT-29 cells assessed as upregulation of cytochrome C protein expression incubated for 48 hrs by Western blot analysis; assay type: functional, cell-based; conditions: dose 1-4 µM, DDE = dose-dependent effect
[17] = tested on: HT-29; assay: Induction of cell cycle arrest in human HT-29 cells assessed as accumulation of cells at G1 phase at 2 uM incubated for 48 hrs by RNaeA/propidium iodide based flow cytometry analysis (reference value: 62.98 %); assay type: functional
[18] = tested on: HT-29; assay: Induction of apoptosis in human HT-29 cells assessed as downregulation of Bcl-xl protein expression incubated for 48 hrs by Western blot analysis; assay type: functional, cell-based; conditions: dose 1-4 µM, DDE = dose-dependent effect
[19] = tested on: HT-29; assay: Induction of cell cycle arrest in human HT-29 cells assessed as accumulation of cells at G2 phase at 4 uM incubated for 48 hrs by RNaeA/propidium iodide based flow cytometry analysis (reference value: 13.96 %); assay type: functional
[20] = tested on: HT-29; assay: Induction of cell cycle arrest in human HT-29 cells assessed as accumulation of cells at S phase at 2 uM incubated for 48 hrs by RNaeA/propidium iodide based flow cytometry analysis (reference value: 23.06 %); assay type: functional
[21] = tested on: HT-29; assay: Antitumor activity against human HT-29 cells overexpressing NQO-1 xenografted in ICR mouse assessed as reduction in tumor weight at 15 mg/kg, ip administered every day for 21 days and measured every 2 days relative to control; assay type: functional; parameters: scale not given: the % may be the effect or the level left; conditions: time 21 day
[22] = tested on: HT-29; assay: Induction of apoptosis in human HT-29 cells assessed as dead cells at 4 uM incubated for 48 hrs by Annexin V-FITC/PI staining based flow cytometry analysis (Rvb= 0.01%); assay type: functional
[23] = tested on: HT-29; assay: Induction of mitochondrial membrane potential loss in human HT-29 cells assessed as healthy cells at 1 uM incubated for 48 hrs by JC-1 staining based flow cytometry analysis (reference value: 93.4 %); assay type: functional
[24] = tested on: HT-29; assay: Induction of oxidative stress in human HT-29 cells assessed as increase in intracellular ROS generation incubated for 48 hrs by DCF-DA fluorescent probe based flow cytometry analysis; assay type: functional, cell-based; conditions: dose 1-4 µM, DDE = dose-dependent effect
[25] = tested on: HT-29; assay: Induction of mitochondrial membrane potential loss in human HT-29 cells assessed as JC-1 monomer formation by measuring increase in green intensity at 2 uM incubated for 48 hrs by JC-1 staining based flow cytometry analysis (reference value: 6.54 %); assay type: functional
[26] = tested on: HT-29; assay: Induction of apoptosis in human HT-29 cells assessed as dead cells at 1 uM incubated for 48 hrs by Annexin V-FITC/PI staining based flow cytometry analysis (Rvb= 0.01%); assay type: functional
[27] = tested on: HT-29; assay: Antiproliferative activity against human HT-29 cells overexpressing NQO1 assessed as inhibition of cell growth incubated for 72 hrs by MTT assay; assay type: functional, cell-based; conditions: HT-29, 72 h
[28] = tested on: HT-29; assay: Induction of apoptosis in human HT-29 cells assessed as dead cells at 2 uM incubated for 48 hrs by Annexin V-FITC/PI staining based flow cytometry analysis (Rvb= 0.01%); assay type: functional
[29] = tested on: HT-29; assay: Induction of mitochondrial membrane potential loss in human HT-29 cells assessed as JC-1 monomer formation by measuring increase in green intensity at 1 uM incubated for 48 hrs by JC-1 staining based flow cytometry analysis (reference value: 6.54 %); assay type: functional
[30] = Selectivity index, ratio of IC50 for antiproliferative activity against NQO1-deficient human NCI-H596 cells to IC50 for antiproliferative activity against human HT-29 cells overexpressing NQO1; assay type: functional
[31] = tested on: HT-29; assay: Induction of apoptosis in human HT-29 cells assessed as late apoptotic cells at 2 uM incubated for 48 hrs by Annexin V-FITC/PI staining based flow cytometry analysis (Rvb= 1.04%); assay type: functional
[32] = tested on: HT-29; assay: Induction of apoptosis in human HT-29 cells assessed as upregulation of Bax protein expression incubated for 48 hrs by Western blot analysis; assay type: functional, cell-based; conditions: dose 1-4 µM, DDE = dose-dependent effect
[33] = tested on: A549; assay: Antiproliferative activity against human A549 cells overexpressing NQO1 assessed as inhibition of cell growth incubated for 72 hrs by MTT assay; assay type: functional, cell-based; conditions: A549, 72 h

C=C(C)[C@@H]1CC[C@]2(C(=O)OCCOC(=O)CCC(=O)OCc3cn(C)c4c3C(=O)C(OC)=CC4=O)CC[C@]3(C)[C@H](CC[C@@H]4[C@@]5(C)CC[C@H](O)[C@@](C)(CO)[C@@H]5CC[C@]43C)[C@@H]12
IC50 at 72 h [1]: 6.45 µM | Activity [2]: 66.47% | Activity [3]: 27.66% | Activity [4]: 72.69% | IC50 [5]: 7.78 µM | Activity [6]: 56.44% | Activity [7]: 20.54% | Activity [8]: 25.17% | Activity [9]: 50% | selectivity ratio [10]: 4.16 | Activity [11]: 44.48% | viability at 2 µM [12]: 55.7% | Ratio IC50 [13]: 4.9 | viability at 1 µM [14]: 75.5% | Activity [15]: 39.61% | Activity [16]: Dde | Activity [17]: 52.73% | Activity [18]: Dde | Activity [19]: 32.73% | Activity [20]: 22.1% | Activity [21]: 55.89% | Activity [22]: 6.74% | Activity [23]: 79.07% | Activity [24]: Dde | Activity [25]: 33.41% | Activity [26]: 2.16% | IC50 [27]: 1.87 µM | Activity [28]: 5.03% | Activity [29]: 20.83% | Ratio IC50 [30]: 3.44 | Activity [31]: 16.77% | Activity [32]: Dde | IC50 [33]: 2.36 µM

— ChEMBL document CHEMBL5113483, “Design and synthesis of NAD(P)H: Quinone oxidoreductase (NQO1)-activated prodrugs of 23-hydroxybetulinic acid with enhanced antitumor properties” (Eur J Med Chem, 2022)
